# US4206215A, “Antimicrobial bis-[4-(substituted-amino)-1-pyridinium]alkanes” (Sterling Drug Inc., priority 1977, dated 1980)
# Read-outs that look alike come from different tables or passages of the source.
# Tests used:
# E. coli AB1932-1 = assay: In vitro antibacterial activity, MIC (modified Autotiter method); assay type: cell-based, Escherichia coli; settings: 18-20 hours at 37° C.
# How it was run: (§1)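 MIC values come from a twofold dilution series spanning final concentrations of 500 down to 0.06 mcg./ml. Dilutions were prepared automatically in sterile water from a 1,000 mcg./ml. solution before inoculated double-strength glucose-containing semisynthetic medium was added.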
# E. coli Vogel = assay: as above; assay type: cell-based, Escherichia coli; settings: 18-20 hours at 37° C.
# How it was run: as §1
# E. coli 100/B22 = assay: as above; assay type: cell-based, Escherichia coli; settings: for MIC E. coli 100/B22: 18-20 hours at 37° C.
# How it was run: as §1
# A. niger 16404 = assay: In vitro antifungal activity, MIC (modified Autotiter method); assay type: cell-based, Aspergillus niger; settings: 18-20 hours at 37° C.
# How it was run: as §1
# S. pyogen. C203 = assay: In vitro antibacterial activity, MIC (modified Autotiter method); assay type: cell-based, Streptococcus pyogenes; settings: 18-20 hours at 37° C.
# How it was run: as §1
# T. menta. 9129 = assay: In vitro antifungal activity, MIC (modified Autotiter method); assay type: cell-based, Trichophyton mentagrophytes; settings: 18-20 hours at 37° C.
# How it was run: as §1
# Ps. aerug. MGH-2 = assay: In vitro antibacterial activity, MIC (modified Autotiter method); assay type: cell-based, Pseudomonas aeruginosa; settings: 18-20 hours at 37° C.
# How it was run: as §1
# K. pneum. 39645 = assay: as above; assay type: cell-based, Klebsiella pneumoniae; settings: 18-20 hours at 37° C.
# How it was run: as §1
# [1] = Acute oral toxicity (ALD50); assay type: in vivo; settings: mouse, in vivo, po, mice, read-out: 7-Day ALD50
# Protocol: (§2) The acute oral toxicity (ALD50) of several representative examples was determined as follows: Groups of 3 young adult male Swiss-Webster strain albino mice were fasted approximately 4 hours before medication and then medicated once orally by stomach tube.
# [2] = system: young adult male Swiss-Webster strain albino mice; assay: Acute oral toxicity (ALD50); assay type: in vivo
# Protocol: as §2
# P. mirab. MGH-1 = assay: In vitro antibacterial activity, MIC (modified Autotiter method); assay type: cell-based, Proteus mirabilis; settings: 18-20 hours at 37° C.
# How it was run: as §1
# C. albicans Wisc. = assay: In vitro antifungal activity, MIC (modified Autotiter method); assay type: cell-based, Candida albicans; settings: 18-20 hours at 37° C.
# How it was run: as §1
# C. albicans 10231 = assay: as above; assay type: cell-based, Candida albicans; settings: 18-20 hours at 37° C.
# How it was run: as §1
# S. Aureus Smith = assay: In vitro antibacterial activity, MIC (modified Autotiter method); assay type: cell-based, Staphylococcus aureus; settings: 18-20 hours at 37° C.
# How it was run: as §1
# [3] = 125 mg/kg oral, suspension in 1% G.T.
# [4] = 250 mg/kg oral, suspension in 1% G.T.
# [5] = 500 mg/kg oral, suspension in 1% G.T.
# [6] = 1000 mg/kg oral, suspension in 1% G.T.
# [7] = 125 mg/kg oral, aqueous solution
# [8] = 250 mg/kg oral, aqueous solution
# [9] = 500 mg/kg oral, aqueous solution
# [10] = 1000 mg/kg oral, aqueous solution
Compound,MIC E. coli AB1932-1 (E. coli AB1932-1) [µg/mL],MIC A. niger 16404 (A. niger 16404) [µg/mL],MIC K. pneum. 39645 (K. pneum. 39645) [µg/mL],MIC P. mirab. MGH-1 (P. mirab. MGH-1) [µg/mL],MIC C. albicans Wisc. (C. albicans Wisc.) [µg/mL],MIC C. albicans 10231 (C. albicans 10231) [µg/mL],MIC E. coli Vogel (E. coli Vogel) [µg/mL],MIC E. coli 100/B22 (E. coli 100/B22) [µg/mL],MIC S. pyogen. C203 (S. pyogen. C203) [µg/mL],MIC T. menta. 9129 (T. menta. 9129) [µg/mL],MIC Ps. aerug. MGH-2 (Ps. aerug. MGH-2) [µg/mL],LD50 at 168 h ([1]; aqueous solution) [mg/kg],"Mortality 7 Days [2, 7]","Mortality 24 Hrs [2, 7]","Mortality 7 Days [2, 8]","Mortality 24 Hrs [2, 8]","Mortality 7 Days [2, 9]","Mortality 24 Hrs [2, 9]","Mortality 7 Days [2, 10]","Mortality 24 Hrs [2, 10]",also measured
"CCCCCCCNc1cc[n+](CCCCCCCCCCCCCC[n+]2ccc(NCCCCCCC)cc2)cc1 [Example 2, 1,14-bis-[4-(heptylamino)-1-pyridinium]tetradecane dichloride]",1.0,7.8,3.9,3.9,7.8,3.9,–,–,–,–,–,–,–,–,–,–,–,–,–,–,"MIC (E. coli Vogel; Escherichia coli, 20 h, read-out: MIC E. coli Vogel): 1.95 µg/mL; MIC (E. coli 100/B22; Escherichia coli, 100/B22, 20 h, read-out: MIC E. coli 100/B22, 18-20 hours at 37° C.): 1 µg/mL; MIC (S. pyogen. C203; Streptococcus pyogenes, 20 h, read-out: MIC S. pyogen. C203): 1 µg/mL; MIC (T. menta. 9129; Trichophyton mentagrophytes, 20 h, read-out: MIC T. menta. 9129): 1 µg/mL; MIC (Ps. aerug. MGH-2; Pseudomonas aeruginosa, 20 h, read-out: MIC Ps. aerug. MGH-2): 1.95 µg/mL; LD50 at 168 h ([1]; suspension in 1% gum tragacanth): 1000 mg/kg; Mortality 7 Days [2, 3]: 0/3; Mortality 24 Hrs [2, 3]: 0/3; Mortality 7 Days [2, 4]: 1/3; Mortality 24 Hrs [2, 4]: 0/3; Mortality 7 Days [2, 5]: 0/3; Mortality 24 Hrs [2, 5]: 0/3; Mortality 7 Days [2, 6]: 1/3; Mortality 24 Hrs [2, 6]: 0/3; MIC (S. Aureus Smith; Staphylococcus aureus, 20 h, read-out: MIC S. Aureus Smith): 1 µg/mL"
"CCCCC(CC)CNc1cc[n+](CCCCCCCCCC[n+]2ccc(NCC(CC)CCCC)cc2)cc1 (stereo not drawn) [Example 59, 1,10-Bis-[4-(2-ethylhexylamino)-1-pyridinium]-decane dichloride]",1.0,15.6,1.95,7.8,1.95,1.95,1.0,0.5,1.0,1.0,31.3,750,0/3,0/3,0/3,0/3,2/3,1/3,1/3,1/3,MIC S. Aureus Smith (S. Aureus Smith): 0.25 µg/mL
CCCCCCCNc1cc[n+](CCCCCCCC[n+]2ccc(NCCCCCCC)cc2)cc1 [Example 23],1.0,7.8,1.95,62.6,1.95,1.0,1.95,1.95,1.0,1.95,31.3,625,0/3,0/3,0/3,0/3,1/3,1/3,3/3,3/3,MIC S. Aureus Smith (S. Aureus Smith): 0.5 µg/mL
CCCCCCCNc1cc[n+](CCCCCCCCCC[n+]2ccc(NCCCCCCC)cc2)cc1 [Example 27],1.0,3.9,1.0,7.8,1.0,1.96,0.5,0.5,0.5,1.0,7.8,250,1/3,0/3,0/3,0/3,1/3,1/3,3/3,1/3,MIC S. Aureus Smith (S. Aureus Smith): 0.25 µg/mL
"CCCCCCCCNc1cc[n+](CCCCCCCC[n+]2ccc(NCCCCCCCC)cc2)cc1 [Example 12, 1,8-Bis-[4-(octylamino)-1-pyridinium]octane dichloride]",1.0,7.8,1.0,3.9,1.0,1.0,1.0,0.5,0.5,1.0,7.8,750,0/3,0/3,0/3,0/3,1/3,1/3,2/3,2/3,MIC S. Aureus Smith (S. Aureus Smith): 0.25 µg/mL
CCCCCCNc1cc[n+](CCCCCCCCCCCCCC[n+]2ccc(NCCCCCC)cc2)cc1 [Example 6],0.5,3.9,1.0,3.9,1.95,1.0,1.0,0.5,1.95,0.5,3.9,315,1/3,1/3,1/3,0/3,2/3,2/3,3/3,3/3,MIC S. Aureus Smith (S. Aureus Smith): 0.5 µg/mL
